This note sets out measurements from US20130184318A1, “[…] […]” (THE REGENTS OF THE UNIVERSITY OF CALIFORNIA, priority 2010, published 2013).

Format in all cases: cell-based, human
In test [1] the test system is HTM cells. The test can be described thus: AFM measurement of Young's modulus (compliance) of HTM cells before and after Lat-B exposure. The settings on record: for HTM Cell Modulus on Substrates, Glass: glass (GPa range), pre-dose 2.7 ± 0.7; for HTM Cell Modulus on Substrates, Homeomimetic: homeomimetic gel E = 4.0 ± 1.5 kPa, pre-dose 1.6 ± 0.2; for HTM Cell Modulus on Substrates, Pathomimetic: pathomimetic gel E = 92 ± 10 kPa, pre-dose 1.8 ± 0.5. The procedure: (§1) Primary HTM cells were obtained from corneal buttons from donors with no ocular diseases and that were not suitable for transplant. […] Cells were plated onto glass surfaces at 100,000 cells per surface. A similar number of cells were plated onto the biomimetic PA hydrogels. The cells were allowed to attach to the surfaces for 12 hours prior to the start of the experiment. Fluorescent images of the actin cytoskeleton were obtained from fixed cells stained with phalloidin-AlexaFluor 568 (Invitrogen, Carlsbad, Calif.). Fluorescent images of the cell membrane were obtained from live cells stained with wheat germ agglutinin-AlexaFluor 488 (Invitrogen).
The PA gels were then adhered to UV-cleaned, glass-bottom petri dishes (World Precision Instruments, Sarasota, Fla.), incubated in HTM medium for 12 hours, and then coated with a mixture of fibronectin and collagen (FNC coating mix, Athena Environmental Sciences, Baltimore, Md.) for 10 minutes prior to cell seeding. HTM cells were added to these dishes in media and were allowed to incubate overnight to ensure proper cell adhesion to the FNC-coated PA gels. Immediately prior to AFM measurements, the HTM media was rinsed away with PBS. This was done because fetal bovine serum is known to inactivate Lat-B (Spector, et al., (1989) Cell Motil Cytoskeleton 13:127-144).
The contact mechanics of the PA substrates and the HTM cells were studied with two MFP-3D atomic force microscopes (Asylum Research, Santa Barbara, Calif.) interfaced with either an Olympus (FluoView 1000 laser scanning confocal microscope, Olympus America, Center Valley, Pa.) or Zeiss (Axio Observer A1, Carl Zeiss, Thornwood, N.Y.) inverted microscope. No differences in contact mechanics of the samples were observed between the two instruments. The AFM probes in the substrate studies were silicon nitride cantilevers (PNP-TR-50, k=60 pN/nm, NanoAndMore, Lady's Island, S.C.) with a square pyramid tip incorporated at the free end. For each experiment, the actual spring constant of the cantilever was determined by monitoring the amplitude of the lever's thermal vibration at resonance and applying the equipartition theorem (Hutter, et al., (1993) Review of Scientific Instruments 64:3342-3342). Probe indentation measurements were obtained over the central region of the cell where the nucleus was present.
Compliance of the HTM cells and PA gels was quantified by fitting the force, generated by the indenting probe, vs. the depth of indentation with equation 1 (Hertz, H. (1882) J. Reine Angew. Mathematik 92:156-171; Love, A. E. H. (1939) Quarterly Journal of Mathematics 10:161-175; Harding, et al., (1945) Proceedings of the cambridge philosophical society 41:16-26).
Where α is the half-angle opening of the square pyramid tip (35°), ν is Poisson's ratio, E is Young's modulus and δ is the penetration depth. By using Eq. 1, we have assumed that the HTM cells and PA gels were perfectly elastic, isotropic, and infinitely thick and that the square pyramid indenter was a rigid cone. A Poisson ratio of 0.5 (incompressible) for both the cell and polyacrylamide gels was assigned, since both samples were well hydrated. This allows a solution for Young's modulus of the sample.
Application of Eq. 1 is not straightforward, as both the cells and gels were not perfectly elastic or isotropic, they were viscoelastic and anisotropic, and they were also not infinitely thick. However, in the limit of small indentations both the cells and gels were well described by Eq. 1. The method proposed by Mahaffey et al., (Phys Rev Lett (2000) 85:880-883) was applied to quantitatively define the indentation depth over which these viscoelastic materials behave as elastic bodies. This is accomplished by plotting experimental values of E vs. δ during tip indentation and noting the penetration depth over which E remains constant. […]

Test [2] has as its system HTM cells. The test can be described thus: Confocal/fluorescence imaging of HTM cell morphology on latrunculin exposure and recovery. The settings on record: for cell morphology: 0.2 μM latrunculin. Here is the method:
as §1
Latrunculin B influences cytoskeleton of cells by associating with actin. […] The micrographs were taken with a confocal AFM. The live HTM cells were labeled with fluorescent wheat germ agglutinin and the latrunculin was added. […] Measurements of compliance were taken prior to the introduction of drug, and at the 30 minute time point. The cells had moduli of 2.0 kPa prior to addition of latrunculin, and 0.07 kPa at 30 minutes. The concentration of drug used was not in the range of 1-100 μM used in other published studies. It should be noted, however, that the higher ranges (100 μM) were topically applied to primate eyes (20 μl) in one bolus while our studies had the drug present during the entire one hour time period. The effects of the latrunculin were profound.
The morphology of HTM cells adhered to glass and the glaucomatous (pathomimetic)polyacrylamide gel (PPA, 92.2±10.4 kPa) substrates were predominantly elongated with pronounced asymmetry. On the homeomimetic polyacrylamide gel (HPA, 4.0±1.5 kPa), the cells were predominantly adhered in a radially symmetric fashion and were considerably rounder in appearance (See, FIGS. 6 and 10). When exposed to Lat-B, HTM cells on glass and PPA substrates responded in a similar fashion to other cell types previously studied (Spector, et al., (1983) Science 219:493-495, Wakatsuki, et al., (2001) Journal of Cell Science 114:1025-1036, Coue, et al., (1987) Febs Letters 213:316-318; Cha, et al., (2004) J Cell Sci 117:3353-3365). Lat-B disrupted the dynamic process of actin filament maintenance and the actin polymerization process rapidly shifted towards net depolymerization. […] These strands resembled retraction fibers observed during mitosis (Sanger, et al., (1984) Cell Tissue Res 237:409-417). Similar cable-like filaments have also been reported by Evanko, et. al., (J Histochem Cytochem (2009) 57:1041-1060).

Another test deals with myocilin. The test can be described thus: Western blot of myocilin protein in HTM 631 cells. The settings on record: HTM 631 cells on 400 nm pitch surfaces with dexamethasone. On the technique in general: A western blot detects proteins with antibodies after separation by electrophoresis.

Protocol for myocilin: Protein concentration is assessed using the Bradford protein assay. Samples of 10 μg are electrophoresed on a 10% polyacrylamide gel and the protein transferred to nitrocellulose membranes as previously described^141. Antibodies for the proteins being detected are commercially available or publicly described. A chemiluminescent detection method is used with peroxidase linked antibodies to mouse, chick or rabbit in conjunction with the LumiGLO chemiluminesent kit. The banding pattern obtained on the x-ray film is quantified using ImageQuant software with the actin band serving as a normalized reference for protein loading. Imaging can also be done using a CCD camera without the use of x-ray film.

For `C/C1=C/C(=O)O[C@@H]2C[C@@H](CC[C@H](C)/C=C\CC1)O[C@@](O)([C@@H]1CSC(=O)N1)C2` [Latrunculin B], the “modulus of the cells” value in the test with HTM cells [1] (0.2 μM latrunculin, measured after 30 minutes, 2.0 kPa before addition) is recorded as 0.07 kPa. For the same compound, the “cell resistance to deformation compared to pre-exposure levels” value with HTM cells [1] (at 30 minutes of Lat-B exposure (0.2 μM)) is “substantially decreased”. The “HTM Cell Modulus on Substrates, Glass” value in the test with HTM cells [1] (90 min recovery after 30 min 0.2 μM Lat-B and removal) came out at 11.0 ± 2.3 kPa; in the test with HTM cells [1] (90 min recovery after 30 min 0.2 μM Lat-B and removal, listed as Lat-B), 11.0±2.3 kPa; in the test on HTM cells [1] (270 min recovery after 30 min 0.2 μM Lat-B and removal) it was 2.3 ± 0.2 kPa; in the test on HTM cells [1] (270 min recovery after 30 min 0.2 μM Lat-B and removal, listed as Lat-B), 2.3±0.2 kPa. The “HTM Cell Modulus on Substrates, Homeomimetic” value is recorded as 2.3 ± 0.2 kPa with HTM cells [1] (90 min recovery after Lat-B) and 1.7 ± 0.5 kPa with HTM cells [1] (270 min recovery after Lat-B). Moreover, the “percentage difference in cell elastic modulus, PPA to HPA” value with HTM cells [1] (maximum, at 90 minutes of recovery from Lat-B) is “approximately 54%”. Also, the “HTM Cell Modulus on Substrates, Pathomimetic” value came to 4.0 ± 1.8 kPa in the test with HTM cells [1] (90 min recovery after Lat-B) and 2.0 ± 0.4 kPa in the test on HTM cells [1] (270 min recovery after Lat-B). Further, the cell morphology result in the test with HTM cells [2] (30 minutes, listed as Latrunculin) is given as “rounding of the cells”; in the test on HTM cells [2] (30 minutes, listed as latrunculin) it was “starting to round up”; in the test on HTM cells [2] (one hour), “completely rounded”. Further, in the test on HTM cells [2] (glass and PPA substrates), the “time to return to pre-exposure morphology after rinsing Lat-B” value is 60-90 minutes.
For `C[C@@H]1C[C@H]2[C@@H]3CCC4=CC(=O)C=C[C@]4(C)[C@@]3(F)[C@@H](O)C[C@]2(C)[C@@]1(O)C(=O)CO` [dexamethasone], in the test with myocilin, the “increase in myocilin protein expression” value came to 19 fold.
